One assay addresses T1, R478A DXPS (Escherichia coli, UniProt P77488, R478A).
T1 construct: made in house
The settings on record: EcR478A vs WT; cited from earlier work.

The target of assay [1] is T2, EcDXPS (Escherichia coli, UniProt P77488).
T2 construct: made in house
The conditions noted are these: cited from earlier work; for inhibitory activity against DXPS: source not stated at the place, probably ref 32.

Assay [2] addresses T2, EcDXPS. The experiment in a line: DXPS-IspC coupled assay, aerobic, WT EcDXPS. It is filed as biochemical, E. coli. The conditions noted are these: for MOI varying D-GAP / MOI varying pyruvate: WT EcDXPS, aerobic. As for the experimental part:
Inhibitory activity of compounds against DXPS were monitored via a continuous spectrophotometric coupled assay with DXPS and IspC as previously described.[41],[42] Briefly, Reaction mixtures containing HEPES (100 mM, pH 8.0), MgCl2 (2 mM), NaCl (5 mM), ThDP (1 mM), BSA (1 mg/mL), DXPS (125–500 nM), IspC (1.7 μM), NADPH (160 μM), DMSO (5%, v/v), and inhibitor (0–200 μM) were preincubated at 25 °C (or chamber temperature 25–30 °C) for 5 min. Enzymatic reactions were initiated via the addition of 20 μL of a 10x substrate mix for a final well volume of 200 μL. Reactions were performed in triplicate unless otherwise noted. See the following sections for details and modifications.
When varying pyruvate (0–500 μM), GAP was maintained at 50 μM (3 mM for R478A). When varying GAP (0–500 μM), pyruvate was maintained at 500 μM. The following [DXPS] were used when varying 1: WT EcDXPS, R478A, H431A, D427A (200 nM), R99A (500 nM), WT DrDXPS, WT PaDXPS (150 nM). […] Reactions were incubated and initiated as described above. Immediately following initiation, NADPH depletion was monitored at 340 nm at 25 °C for 7–10 min with a 14–20 second time interval. Initial velocities of DXP formation were determined from the linear portion of the NADPH decay. […] Initial velocities were plotted vs. substrate concentration, and the data were fit to equation 1 (mixed model), 2 (competitive), or 3 (uncompetitive) based on the calculated α value and goodness of fit in GraphPad Prism. Reported standard errors of the mean for Kis are calculated from three replicates.

The target of a further assay is T3, DXPS (Escherichia coli, UniProt P77488).
T3 construct: made in house
The experiment in a line: NMR detection of chemical reduction by DXPS and substrates (LR 1H-15N HSQC). The settings on record: 500 μM. It is filed as biochemical. As for the experimental part: In order to determine if 1 is reduced by the C2-α-carbanion on DXPS, we prepared the ^15N-labeled analog 8 aerobically in Tris pH 8 (to bias the oxidized form, Fig S7) and then transferred this mixture to the anaerobic chamber to minimize O2-mediated re-oxidation of 8 following reduction by the C2-α-carbanion (Fig S18). […] Reactions containing 8 (500 μM) were then initiated by the addition of DXPS (1 μM) and ^13C-labeled pyruvate (2 mM), in the presence or absence of 500 μM GAP (Fig 8B–E, S22–23). Samples were then quenched by boiling and vortexing before being transferred into degassed NMR tubes and sealed with rubber septa and parafilm to preclude reoxygenation. […] Further evidence supporting Model 2 in which 1 induces LThDP decarboxylation and promotes substrate wasting, was obtained by detection of products using 1D ^1H-NMR which selectively detects H{^13C} and H3{^13C} spectra via a proton multiplicity filter (Fig 8, S23–24). […] Production of DXP relative to acetate in the presence of D-GAP was reduced in the presence of 8 (Fig S24), consistent with a mechanism in which 1 competes with GAP as an acceptor and in agreement with the previously characterized competitive mechanism of inhibition with respect to D-GAP.[32]
Reaction buffer (50 mM Tris pH 8, 2 mM MgCl2, 100 mM NaCl, 1 mM ThDP, 10% D2O) was prepared aerobically. Oxime 8 (500 μM) was added, and the mixture was incubated at 4 °C for 30 min. Reaction mixtures were then brought into the anaerobic chamber and allowed to deoxygenate ~2 hrs. Reactions were initiated by addition of 1 μM DXPS with 2 mM sodium pyruvate-^13C3 or 2 mM sodium pyruvate-^13C3 and 500 μM GAP. Reaction mixtures were incubated at 25 °C for 1 hr. Reactions were quenched by boiling for 5 min at 95 °C followed by vortexing for 15 seconds. The quenched mixtures were transferred to labeled NMR tubes which were sealed with rubber septa and parafilm prior to removal from the chamber to exclude oxygen once removed from the chamber. 2D Multiple Bond Long Range (LR) ^1H-^15N-HSQC and 1D ^1H detected H{^13C} and H3{^13C} spectra via a proton multiplicity filter which selects for ^13C nuclei attached to an odd number of protons were acquired on a Bruker Avance NEO 600 MHz spectrometer equipped with a TCI cryogenic probe equipped with z-gradients with a cryo-cooled ^13C preamplifier, resulting in high sensitivity for ^13C detection. Spectra were acquired at 600 MHz (^1H), 150 MHz (^13C), and 61 MHz (^15N) at 25 °C. Parameters for various categories of spectra are as follows: (LR ^1H-^15N HSQC): 16 scans and 150 ms acquisition time (t2) per FID and a ^1H spectral width of 15.1376 ppm; since the chemical shifts of N^R (δ 335) and N^O (δ 374) are separated by ~ 40 ppm, data collection times were optimized by positioning the ^15N carrier at 354 ppm and using an ^15N spectral width of 25 ppm and an acquisition time of 13 ms along ^15N (t1); with a 1.5 s relaxation delay between successive scans, the total data collection period per 2D spectrum was 20 minutes. ^1H detected H{^13C} and H3{^13C} filtered 1D spectra: 200 ms acquisition time/FID, and a 5s relaxation day between successive scans, 1.5 minutes per spectrum. Controls were also prepared in which reactions were initiated by addition of 1 μM DXPS with no substrates, as well as 2 mM ^13C-labeled pyruvate + 500 μM GAP with DXPS dialysis buffer in place of enzyme. A “mixed” redox state control of 1 (500 μM) was prepared aerobically in 50 mM HEPES pH 8 with 10% D2O.

Read-outs that look alike come from different tables or passages of the source.

For orientation: Ki means a dissociation constant, usually derived from enzyme kinetics or from competition with a known ligand.

Regarding `CC(=O)P(=O)(O)OCCc1cn([C@H](Cc2ccccc2)C(=O)O)nn1` [D-PheTrAP, D-phenylalanine triazol acetyl phosphonate], the “fold loss in potency on EcR478A” value at R478A DXPS was more than 30 fold.
Turning to `CO/N=C/c1cc(O)c(O)cc1O` [compound 2], the MOI varying pyruvate entry at EcDXPS [1] (footnote a) is “Noncompetitive”. Also, the Ki at EcDXPS [1] (vary pyruvate) is 15.6 ± 0.7 µM.
`N/N=C/c1cc(O)c(O)cc1O` [compound 3, (E,Z)-5-(hydrazineylidenemethyl)benzene-1,2,4-triol]: on EcDXPS [2], affinity was put at a Ki of 17.5 ± 0.6 µM, the “MOI varying D-GAP” value was “competitive” and the MOI varying pyruvate result is “uncompetitive”.
On to `CN/N=C/c1cc(O)c(O)cc1O` [compound 4], for which the “potency against DXPS” value at EcDXPS [1] (determined in the presence of ascorbate) is “lacking measurable potency”. On EcDXPS [2], the “MOI varying D-GAP” value is “mixed” and the MOI varying pyruvate entry was “uncompetitive”.
With `CO/N=C/c1ccc(O)c(O)c1` [compound 5], the “inhibitory activity against DXPS” value at EcDXPS [1] is “lack of potency”.
`CO/N=C/c1cc(O)ccc1O` [compound 6]: at EcDXPS [1], the “inhibitory activity against DXPS” value is recorded as “lack of potency”.
As to `O/[15N]=C/c1cc(O)c(O)cc1O` [compound 8, ^15N-labeled (E)-2,4,5-Trihydroxybenzaldehyde oxime], the “redox state after incubation (LR 1H-15N HSQC)” value at DXPS (DXPS 1 μM + pyruvate 2 mM + D-GAP 500 μM, anaerobic) is “readily reduced”; on DXPS (DXPS 1 μM + pyruvate 2 mM, no GAP, anaerobic), “fully reduced”; at DXPS (DXPS 1 μM, no substrates), “maintained mostly in the oxidized form”; on DXPS (ascorbate 5 mM control) it was “Total reduction”; at DXPS (pyruvate 2 mM + D-GAP 500 μM, no DXPS) it was “Some reduction”.

The values above are taken from article doi:10.1101/2025.03.03.641193, “Trihydroxybenzaldoximes are redox cycling inhibitors of ThDP-dependent DXP synthase” (bioRxiv, 2025).
